Experimental data taken from ChEMBL document CHEMBL1136029, “Inhibition of estrone sulfatase (ES) by derivatives of 4-[(aminosulfonyl)oxy] benzoic acid” (Bioorg Med Chem Lett, 2002).

What was measured:
[1] = molecular target: T1, Steryl-sulfatase (Homo sapiens) (UniProt P08842); test: Compound was tested for the Inhibitory activity against the Estrone Sulfatase at a concentration of 10 uM
T1 sequence (whole entry): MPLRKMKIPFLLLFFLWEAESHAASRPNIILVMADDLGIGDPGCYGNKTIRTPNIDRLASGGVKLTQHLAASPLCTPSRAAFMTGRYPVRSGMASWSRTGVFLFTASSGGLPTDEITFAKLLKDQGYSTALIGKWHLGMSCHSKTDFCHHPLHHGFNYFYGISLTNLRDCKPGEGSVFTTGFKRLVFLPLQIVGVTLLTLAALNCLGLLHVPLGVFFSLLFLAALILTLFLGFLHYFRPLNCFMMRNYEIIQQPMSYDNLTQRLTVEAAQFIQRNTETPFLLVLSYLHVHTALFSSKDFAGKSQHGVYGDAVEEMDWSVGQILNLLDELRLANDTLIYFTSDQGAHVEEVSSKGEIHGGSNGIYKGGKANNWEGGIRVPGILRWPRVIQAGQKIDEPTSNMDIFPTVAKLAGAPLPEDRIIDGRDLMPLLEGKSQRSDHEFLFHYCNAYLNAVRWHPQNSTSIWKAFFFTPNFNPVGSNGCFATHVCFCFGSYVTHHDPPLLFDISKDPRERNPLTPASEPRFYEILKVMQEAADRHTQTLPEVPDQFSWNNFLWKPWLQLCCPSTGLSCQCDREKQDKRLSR

[2] = molecular target: T2, Steryl-sulfatase (Homo sapiens, UniProt P08842); test: Inhibitory activity against Estrone Sulfatase
T2 sequence (P08842 whole entry): T1 sequence (whole entry)

[3] = molecular target: T1, Steryl-sulfatase (Homo sapiens); test: Compound was tested for the Inhibitory activity against the Estrone Sulfatase at a concentration of 50 uM
[4] = Dissociation constant determined by calculating its overall stability; assay type: physicochemical
[5] = molecular target: T1, Steryl-sulfatase (Homo sapiens); test: Compound was tested for the Inhibitory activity against the Estrone sulfatase at a concentration of 50 uM
[6] = molecular target: T2, Steryl-sulfatase; test: Inhibitory activity against Estrone sulfatase was determined
[7] = molecular target: T1, Steryl-sulfatase (Homo sapiens); test: Compound was tested for the Inhibitory activity against the Estrone sulfatase at a concentration of 10 uM

inhibition [1] [%] | IC50 [2] [µM] | inhibition [3] [%] | pKa [4] | inhibition [5] [%] | IC50 [6] [µM] | inhibition [7] [%] | Compound
63 | 5 | 80.4 | – | – | – | – | CCCCCCCCOC(=O)c1ccc(OS(N)(=O)=O)cc1
69.5 | 3.4 | 83.7 | 8.27 | – | – | – | CCCCCCCOC(=O)c1ccc(OS(N)(=O)=O)cc1
64.4 | 5.9 | 86.2 | 8.47 | – | – | – | CCCCCOC(=O)c1ccc(OS(N)(=O)=O)cc1
72.6 | 3.8 | – | 8.52 | – | – | – | CCCCCCOC(=O)c1ccc(OS(N)(=O)=O)cc1

The next lines start with the compound.

Compound | inhibition [1] [%] | IC50 [2] [µM] | inhibition [3] [%] | pKa [4] | inhibition [5] [%] | IC50 [6] [µM] | inhibition [7] [%]
CCCCCCCCCCOC(=O)c1ccc(OS(N)(=O)=O)cc1 | 36.5 | 22.4 | – | – | – | – | –
CCCCCCCCCOC(=O)c1ccc(OS(N)(=O)=O)cc1 | – | 4.8 | 76.2 | – | – | – | –
CCCCOC(=O)c1ccc(OS(N)(=O)=O)cc1 | 48.3 | 10.5 | – | 8.07 | – | – | –
COC(=O)c1ccc(OS(N)(=O)=O)cc1 | – | – | – | 8.28 | 74.7 | 31.6 | 25.4
CCCOC(=O)c1ccc(OS(N)(=O)=O)cc1 | 42.6 | 13.2 | 76.9 | 8.03 | – | – | –
C[C@]12CC[C@@H]3c4ccc(OS(N)(=O)=O)cc4CCC3[C@@H]1CCC2=O (single isomer, unassigned) | 68.6 | – | – | – | – | – | –
CCOC(=O)c1ccc(OS(N)(=O)=O)cc1 | 25.6 | 31.6 | 63.4 | 8.22 | – | – | –
